According to patent publication US5736523A, “Antineoplastic heteronapthoquinones” (Biochem Pharma Inc., priority 1995, dated 1998):
pIC50: −log10 of the molar value.

Assays:
[1] = Med. Res. Rev. 1981; cited from earlier work
[2] = Med. Res. Rev. 1981; cited from earlier work; remark: listed apart in the source
[3] = system: SKOV3 (Ovarian adenocarcinoma); assay: In vitro cytotoxicity, microculture tetrazolium (MTT) assay, SKOV3; format: cell-based, human; settings: SKOV3; read-out: IC50
Method: (§1) In Vitro Cytotoxicity--Microculture Tetrazolium Assay
(§2) The microculture tetrazolium assay was used to test in vitro cytotoxicity. This assay is described in Plumb, J. A. et al., 1989 Cancer Research 49, 4435-4440, which is herein incorporated by reference. The cytotoxicity of compounds towards tumor cells is measured in vitro using the assay. This assay method is based upon the ability of live, but not dead cells to reduce the yellow water soluble dye 3-(4;5-dimethylthiazol-2-yl)-2,5-diphenyltetrazolium bromide (MTT) to its water insoluble purple formazan product.
(§3) Human Tumor Cell lines, used were:
SKOV3 (Ovarian adenocarcinoma)--provided by Dr. V. Ling,
(§4) The cells were maintained in exponential growth in culture in minimal essential media (MEM) supplemented with non-essential amino acids, and containing 15% (v/v) fetal bovine serum, 5 mM L-glutamine, 1 mM sodium pyruvate, and 0.1 U/ml insulin. All cell lines were grown at 37° C. in an atmosphere of 5% CO2 in air.
(§5) Test compounds: 20 mM in DMSO and diluted to a final concentration of 200 μM in culture medium before use.
(§6) The following is the generic description of the assay method. It should be noted that although the conditions described work well with the cells listed above, the initial plating density and the MTT concentration used should be verified for each new cell line used to test compounds.
(§7) For each assay, doxorubicin is included as an inter-assay standard. This allows us to monitor the behaviour of the assay in general, and in particular, to check that the SKVLB line has maintained its resistant phenotype.
(§8) The plate layout is done in the following manner: The assays are carried out in 96-well (8 well×12 well) microtiter plates. Serial dilutions of the compound are tested along the length of the plate. A 1:3 serial dilution of compound in culture medium covers a concentration range from 100 μM to 1.7 nM. Each concentration of compound is tested in quadruplet, allowing two compounds to be tested per plate. Wells containing no cells (blank) and cells with no test compound (control) are included on each plate.
(§9) Cells are plated out in 100 μl of culture medium in the microtiter plates at a density of around 1,500-4,000 cells per well. The plates are incubated overnight to allow the cells to become adherent after which the test compound is added (100 μl of appropriate dilution per well). The cells are incubated with test compound at 37° C. for 48 h after which the compound is replaced with fresh medium. After a further 48 h incubation at 37° C., 50 μl of MTT solution (2 mg/ml) is added to each well. The plates are incubated in the dark for 4 h at 37° C. after which the medium is removed. The MTT formazan product is extracted from the cells by the addition of 200 μl DMSO followed by 50 μl of Sorensen's buffer. The plates are shaken briefly and the absorbance at 570 nm is read using a Molecular Devices UV max plate reader. Curves are fit to the MTT assay data using a four parameter logistic equation, and the data are normalized to fit a 0% to 100% survival scale.

[4] = system: SKVLB (Ovarian; multidrug resistant); assay: In vitro cytotoxicity, microculture tetrazolium (MTT) assay, SKVLB; format: cell-based, human; settings: for pIC50: SKVLB, multidrug resistant, read-out: IC50; for VLB/OV3: ratio SKVLB / SKOV3
Method in brief: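 Multidrug-resistant ovarian SKVLB cells exposed 48 h at 37 °C to 1:3 serial dilutions (100 μM–1.7 nM), then 48 h in fresh medium. MTT reduction read at 570 nm after DMSO extraction; four-parameter logistic fit normalized to 0–100% survival.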

[5] = system: T47D (Ductal carcinoma of breast); assay: In vitro cytotoxicity, microculture tetrazolium (MTT) assay, T47D; format: cell-based, human; settings: read-out: IC50
Method: as §1, §2, §3
T47D (Ductal carcinoma of breast)--ATCC catalog #HTB-133.
as §4, §5, §6, §7, §8, §9

[6] = system: Lox (Melanoma); assay: In vitro cytotoxicity, microculture tetrazolium (MTT) assay, Lox; format: cell-based, human; settings: read-out: IC50
Method: as §1, §2, §3
Lox (Melanoma)--Southern Research Institute.
as §4, §5, §6, §7, §8, §9

[7] = system: HT 29 (Colon adenocarcinoma); assay: In vitro cytotoxicity, microculture tetrazolium (MTT) assay, HT 29; format: cell-based, human; settings: HT29; read-out: IC50
Method: as §1, §2, §3
HT 29 (Colon adenocarcinoma) ATCC catalog #HTB-38.
as §4, §5, §6, §7, §8, §9

[8] = system: MCF-7; assay: In vitro antitumor activity, MCF-7; format: cell-based
Method: as §2, §8
(§10) Cells are plated out in 100 μl of culture medium in the microtiter plates at a density of around 1,500-4,000 cells per well. […] The plates are shaken briefly and the absorbance at 570 nm is read using a Molecular Devices UV max plate reader. […]

[9] = system: MCF-7/ADR; assay: In vitro antitumor activity, MCF-7/ADR (adriamycin resistant); format: cell-based
Method: as §2, §8, §10

[10] = system: MAT-B; assay: In vitro antitumor activity, MAT-B; format: cell-based
Method: as §2, §8, §10

[11] = system: MAT-B/ADR; assay: In vitro antitumor activity, MAT-B/ADR; format: cell-based
Method: as §2, §8, §10

[12] = literature; cited from earlier work

SMILES | pIC50 [3] | pIC50 [4] | VLB/OV3 [4] | pIC50 [5] | pIC50 [6] | pIC50 [7] | also measured
C[C@H]1O[C@@H]2CC(=O)O[C@@H]2C2=C1C(=O)c1c(O)cccc1C2=O [kalafungin] |  |  |  |  |  |  | antibacterial activity [1]: potent antibacterial; antifungal activity [2]: antifungal activity
CC(=O)[C@H]1CC2=C(C(=O)c3ccccc3C2=O)[C@H](OC2C[C@H](NC(=O)C(F)(F)F)[C@H](O)[C@H](C)O2)O1 (stereo partly drawn) [BCH1146, (1'S,1S,3R)-Methyl (5,10-dioxo-1-(2',3',6'-trideoxy-3'-trifluoroacetamido-4'-hydroxy-L-lyxohexopyranose)-3,4,5,10-tetrahydronaphtho [2,3-C]pyran-3-yl) ketone] | 6.05 | 5.16 | 7.82 | 5.23 | 5.42 | 6.04 | pIC50 [8]: 7.36; potency in breast cancer, MCF-7, against adriamycin ([8]; breast cancer): less potent than adriamycin; pIC50 ([9]; MCF-7/ADR): 6.72; effectiveness in the sensitive and adriamycin resistant cell line ([9]; MCF-7 sensitive vs adriamycin resistant): nearly as effective in the sensitive and adriamycin resistant cell line; pIC50 [10]: 6.34; pIC50 [11]: 6.25
CC1O[C@H]2CC(=O)O[C@H]2C2=C1C(=O)c1c(O)c3c(c(O)c1C2=O)[C@H]1C[C@@H](O)[C@]3(O)[C@@H](C)O1 (stereo partly drawn) [Granaticin] |  |  |  |  |  |  | antitumor activity [12]: show antitumor activity
C[C@@H]1O[C@@H](CC(=O)O)CC2=C1C(=O)c1c(O)cccc1C2=O [nanaomycin A] |  |  |  |  |  |  | antibacterial activity [1]: potent antibacterial; antifungal activity [2]: antifungal activity
CC(=O)C1CC2=C(C(=O)c3ccccc3C2=O)C(OC[C@@H]2CCCN2C(=O)OC(C)(C)C)O1 (mixture of isomers) [BCH2067, (1S,2'S,3R) and (1R,2'S,3S)-methyl-(1-[O-N-BOC-prolinol]-5,10-dioxo-3,4,5,10-tetrahydro-1H-naphtho [2,3-C]pyran-3-yl) ketone] | 5.92 | 5.65 | 2 | 6.27 | 5.96 | 6.49 | 
COC(=O)C1CC2=C(C(=O)c3c(cc4ccccc4c3O)C2=O)[C@@H](O[C@H]2C[C@H](NC(=O)C(F)(F)F)[C@H](O)[C@H](C)O2)O1 (stereo partly drawn) [pyranoanthraquinone (H)] |  |  |  |  |  |  | antitumor activity [12]: possess antitumor activity
CC(=O)[C@@H]1CC2=C(C(=O)c3ccccc3C2=O)[C@H](OC2CCC(NC(=O)N(CCCl)N=O)CC2)O1 (mixture of isomers) [BCH2114, (1R,3S) and (1S,3R)-3-aceto-5,10-dioxo-1 (4-chloroethylnitrosoureido cyclohexyl-oxy)-3,4,5,10-tetrahydro-1H-naphtho-(2,3-c)-pyran] | 6.33 | 5.69 | 4.32 | 6.18 | 6.43 | 6.59 | 
CC(=O)C1CC2=C(C(=O)c3ccccc3C2=O)C(OC2CC(NC(=O)C(F)(F)F)C(NC(=O)C(F)(F)F)C(C)O2)O1 [BCH2104, (1R,3S,1'S) and (1S,3R,1'S)-Methyl-(1-[2',3',4',6'-tetradeoxy-3',4'-bis-trifluoroacetamido-L-arabinohexopyranose]-5,10-dioxo-3,4,5,10-tetrahydronaphthaleno-[2,3-c]pyran-3-yl) ketone] | 6.68 | 5.96 | 5.05 | 6.21 | 6.62 | 6.77 | 
